Read-outs that look alike come from different tables or passages of the source.
Target: T1, W1145Y-CFTR (Homo sapiens, UniProt P13569, W1145Y)
T1 construct: expressed in transfected cells; host or cells: CHO cells, pcDNA plasmid
Test: Inside-out patch-clamp inhibition of CFTR current by Inh-172
Format: cell-based
Details: for inhibition at 0.5 µM: 500 nM Inh-172; for inhibition at 5 µM: 5000 nM Inh-172; for inhibition at 10 µM: 10000 nM Inh-172

[1] = read-out: percent inhibition of current, Mean
[2] = read-out: percent inhibition of current, individual cell

T1 sequence (P13569 whole entry W1145Y): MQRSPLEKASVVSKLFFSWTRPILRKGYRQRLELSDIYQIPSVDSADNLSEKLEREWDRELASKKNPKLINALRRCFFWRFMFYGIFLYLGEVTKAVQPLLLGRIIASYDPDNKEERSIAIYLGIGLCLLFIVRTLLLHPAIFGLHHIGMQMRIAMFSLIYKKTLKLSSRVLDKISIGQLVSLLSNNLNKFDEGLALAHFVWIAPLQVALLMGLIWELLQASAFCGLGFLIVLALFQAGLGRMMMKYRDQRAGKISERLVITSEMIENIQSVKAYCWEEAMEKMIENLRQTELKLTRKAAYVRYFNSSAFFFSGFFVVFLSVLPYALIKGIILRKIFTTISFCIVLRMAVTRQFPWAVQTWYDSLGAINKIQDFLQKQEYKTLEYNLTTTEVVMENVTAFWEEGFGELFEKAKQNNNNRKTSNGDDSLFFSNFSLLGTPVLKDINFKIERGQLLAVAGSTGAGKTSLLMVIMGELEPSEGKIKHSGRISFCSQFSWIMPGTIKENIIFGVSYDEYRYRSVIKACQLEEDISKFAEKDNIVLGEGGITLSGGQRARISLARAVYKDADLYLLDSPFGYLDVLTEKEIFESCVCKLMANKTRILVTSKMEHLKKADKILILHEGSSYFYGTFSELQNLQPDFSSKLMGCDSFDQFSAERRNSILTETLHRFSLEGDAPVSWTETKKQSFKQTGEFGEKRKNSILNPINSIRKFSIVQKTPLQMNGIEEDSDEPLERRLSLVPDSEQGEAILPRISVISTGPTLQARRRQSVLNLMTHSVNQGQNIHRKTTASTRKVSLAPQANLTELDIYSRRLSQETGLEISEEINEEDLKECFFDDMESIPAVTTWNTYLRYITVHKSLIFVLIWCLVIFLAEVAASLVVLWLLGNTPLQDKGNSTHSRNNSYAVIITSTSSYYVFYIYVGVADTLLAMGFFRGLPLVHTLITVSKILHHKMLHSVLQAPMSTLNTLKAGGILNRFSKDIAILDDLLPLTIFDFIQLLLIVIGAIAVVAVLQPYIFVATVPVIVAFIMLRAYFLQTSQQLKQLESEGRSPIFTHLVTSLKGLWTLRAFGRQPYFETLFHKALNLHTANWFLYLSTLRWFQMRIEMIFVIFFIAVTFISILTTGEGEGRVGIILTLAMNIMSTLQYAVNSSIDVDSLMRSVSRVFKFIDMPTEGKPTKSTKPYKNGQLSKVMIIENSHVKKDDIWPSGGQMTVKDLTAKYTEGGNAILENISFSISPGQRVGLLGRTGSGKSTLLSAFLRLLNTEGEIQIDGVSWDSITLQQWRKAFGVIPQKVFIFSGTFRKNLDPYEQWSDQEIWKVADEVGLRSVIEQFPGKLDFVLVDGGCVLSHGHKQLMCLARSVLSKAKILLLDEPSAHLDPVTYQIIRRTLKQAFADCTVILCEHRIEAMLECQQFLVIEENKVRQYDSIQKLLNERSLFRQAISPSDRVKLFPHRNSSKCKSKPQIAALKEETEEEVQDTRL

In the case of `O=C(O)c1ccc(/C=C2\SC(=S)N(c3cccc(C(F)(F)F)c3)C2=O)cc1` [Inh-172, CFTRinh-172], the inhibition at 0.1 µM (100 nM Inh-172, read-out: percent inhibition of current, Mean) is reported as 10.8%, the inhibition at 0.5 µM [1] is reported as 38% and the inhibition at 0.5 µM [2] is reported as 29%. For the same molecule, the inhibition at 1 µM (1000 nM Inh-172, read-out: percent inhibition of current, Mean) was 54%, the inhibition at 5 µM [1] was 82% and the inhibition at 5 µM [2] was 77%. For the same molecule, the inhibition at 10 µM [1] was 91.4%, the inhibition at 10 µM [2] was 88% and the “Hill Coefficient” value (W1145Y) was 0.92 ± 0.03. It also gave an IC50 (W1145Y) of 0.87 ± 0.03 µM.

— publication PMC11303713, “Allosteric inhibition of CFTR gating by CFTRinh-172 binding in the pore” (Nature Communications, 2024)
